Assay results: US7015211B2 (Yale University, priority 2003, dated 2006)
Values joined by “and” are separate entries in the source; they are usually repeats but may differ in a detail not shown here. Identical values can stand only once. “Also recorded” adds a separate entry of the source. Like-named read-outs stand apart in the source and are kept apart here. Marks after values point to notes of the source that are not given here.

What was measured:
[1] = tested on: esterase, rat hepatic microsomes; experiment: Esterase hydrolysis in rat hepatic microsomes; format: in vitro ADME
Description: Esterase. Esterase activity was measured in rat hepatic microsomes essentially using the conditions described^41 with some minor modifications. Briefly, rat hepatic microsomes were incubated with 50 μM E2-alkyl ester. Since the rates of reaction are widely different for the various esters, the incubation times and enzyme concentration were varied accordingly to obtain linear kinetics. In every experiment, E16-1,2 was run concurrently to normalize the rate of hydrolysis of each compound. At several appropriate time points during the incubation (37° C.), 100 μL aliquots were quenched with a solution of 2 μg of the internal standard, 6-ketoestradiol in 33 μL of CH3CN, 33 μL of THF and 5 μL of glacial HOAc. The mixture was centrifuged and analyzed for the esterase-hydrolysis product (the corresponding E2-carboxylic acid) by reversed phase HPLC: E16-1,0; E15-1,0; E15-2,0; and E15-3,0 by HPLC with system H-29. Peaks for the hydrolysis product (E16-1,0 tR=10.7 min; E15-1,0 tR=6.9 min; E15-2,0 tR=9.9 min; E15-3,0 tR=14 min;) and the internal standard (tR=11.8 min for system H-29 and tR=8.8 min for system H-30 were quantified at 280 nm on the HPLC UV detector. The UV absorbance was converted to nmoles of product by comparison to standard curves and corrected for recovery of the internal standard, 6-ketoestradiol. The velocity of the reaction for each ester, in nmol product/min/mg protein, was then normalized to the ester, E16-1,2 and is shown in Table 1 as relative hydrolytic activity (RHA) The enzymatic velocity for the hydrolysis of E16-1,2 was 2.34±0.8 (S.D.) nmol product/min/mg protein over the various experiments. All compounds were tested in triplicate in at least 2 separate experiments

[2] = tested on: human endometrial adenocarcinoma cells (Ishikawa); experiment: Estrogenic potency in Ishikawa cells, induction of alkaline phosphatase (AlkP); format: cell-based; conditions: for Ishikawa cell AlkP (RSA): relative stimulatory activity = EC50 of E2 / EC50 of analog x 100, E2 = 100, 3 days, ± SD
Description: Estrogenic Potency in Ishikawa Cells. The estrogenic potency of the E2-analogs was determined in an estrogen bioassay, the induction of alkaline phosphatase (AlkP) in human endometrial adenocarcinoma cells (Ishikawa) grown in 96-well microtiter plates as we have previously described.^38 In short, the cells are grown in phenol red free medium with estrogen depleted (charcoal stripped) bovine serum in the presence or absence of varying amounts of the steroids, across a dose range of at least 6 orders of magnitude. […] After 3 days, the cells are washed, frozen and thawed, and then incubated with 5 mM p-nitrophenyl phosphate, a chromogenic substrate for the AlkP enzyme, at pH 9.8. To ensure linear enzymatic analysis, the plates are monitored kinetically for the production of p-nitrophenol at 405 nm. […] Each compound was analyzed in at least 3 separate experiments performed in duplicate.

[3] = biological target: T1, ER (ERα) in uterine cytosol (Rattus norvegicus, UniProt P06211); experiment: Competitive binding to the estrogen receptor in rat uterine cytosol; conditions: for Estrogen Receptor (RBA): relative binding affinity, E2 = 100, rat uterine cytosol, 1 nM [3H]E2, ± SD; for RBA: relative to E2
T1 sequence (P06211 1-600): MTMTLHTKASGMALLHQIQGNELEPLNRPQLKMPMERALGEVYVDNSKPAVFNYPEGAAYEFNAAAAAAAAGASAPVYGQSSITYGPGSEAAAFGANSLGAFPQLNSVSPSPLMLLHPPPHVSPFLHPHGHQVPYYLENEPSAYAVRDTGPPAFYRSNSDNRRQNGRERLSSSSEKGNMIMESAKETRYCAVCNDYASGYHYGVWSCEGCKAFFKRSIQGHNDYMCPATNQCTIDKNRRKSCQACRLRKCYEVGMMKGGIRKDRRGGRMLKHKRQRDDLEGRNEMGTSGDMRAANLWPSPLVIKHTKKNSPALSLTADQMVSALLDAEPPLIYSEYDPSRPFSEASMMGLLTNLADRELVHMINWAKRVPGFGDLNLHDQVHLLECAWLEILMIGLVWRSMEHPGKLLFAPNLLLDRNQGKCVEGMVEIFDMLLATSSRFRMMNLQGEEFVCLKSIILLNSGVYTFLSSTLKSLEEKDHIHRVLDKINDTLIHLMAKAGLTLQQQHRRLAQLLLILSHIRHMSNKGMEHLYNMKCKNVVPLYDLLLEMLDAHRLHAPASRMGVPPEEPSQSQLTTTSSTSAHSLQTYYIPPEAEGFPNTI

[4] = tested on: vagina of ovariectomized mice; experiment: In vivo estrogen bioassay: vaginal reductases (local); parameters: species or system mouse; conditions: for Vaginal R.A × 10^3: activity relative to E2, × 10^3, 50 ng dose
Description: In Vivo Estrogen Bioassays: Vaginal reductases. […] The formazan product in the organic extract is quantified at 500 nm. Except where noted, each compound was assayed on at least 2 separate occasions with at least 5–6 replicates each time.

[5] = biological target: T2, ligand binding domain (LBD) of human ERα (M250-V595) (Homo sapiens, UniProt P03372); experiment: Competitive binding to the LBD of human ERα in E. coli lysates; conditions: for selectivity / preference for ERα: ERα versus ERβ LBD; for ERα RBA: RBA compared to E2 (=100), LBD of human ERα in E. coli lysates, [3H]E2; for ERα RBA / ERα/ERβ (ratio of RBA): ± SD; for ERα/ERβ (ratio of RBA): human LBDs
T2 construct: human ERα (M250-V595); made in house; host or cells: Escherichia coli (lysate used)
T2 sequence (P03372 250-595): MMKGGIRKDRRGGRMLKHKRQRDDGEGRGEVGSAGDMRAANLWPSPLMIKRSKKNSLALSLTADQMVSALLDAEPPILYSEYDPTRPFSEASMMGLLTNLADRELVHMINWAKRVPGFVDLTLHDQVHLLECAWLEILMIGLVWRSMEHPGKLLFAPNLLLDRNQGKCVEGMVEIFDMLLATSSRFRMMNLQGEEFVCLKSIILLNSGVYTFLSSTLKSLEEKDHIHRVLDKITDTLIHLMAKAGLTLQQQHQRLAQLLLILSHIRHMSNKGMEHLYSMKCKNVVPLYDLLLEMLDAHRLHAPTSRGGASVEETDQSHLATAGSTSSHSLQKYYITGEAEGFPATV

[6] = biological target: T3, ligand binding domain (LBD) of human ERβ (M214-Q530) (Homo sapiens, UniProt Q92731); experiment: Competitive binding to the LBD of human ERβ in E. coli lysates; conditions: RBA compared to E2 (=100), [3H]E2, ± SD
T3 construct: human ERβ (M214-Q530); made in house; host or cells: Escherichia coli (lysate used)
T3 sequence (Q92731 214-530): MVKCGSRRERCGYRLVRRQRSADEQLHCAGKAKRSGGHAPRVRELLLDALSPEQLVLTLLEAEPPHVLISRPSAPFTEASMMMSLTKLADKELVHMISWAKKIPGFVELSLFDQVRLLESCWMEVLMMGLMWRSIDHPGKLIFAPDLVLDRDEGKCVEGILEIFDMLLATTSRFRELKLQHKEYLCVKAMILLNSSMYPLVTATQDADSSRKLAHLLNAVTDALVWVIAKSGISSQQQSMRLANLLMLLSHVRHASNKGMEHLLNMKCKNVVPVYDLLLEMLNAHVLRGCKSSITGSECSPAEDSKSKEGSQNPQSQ

[7] = tested on: uterus of immature rats; experiment: In vivo estrogen bioassay: uterine weight (uterotrophic assay, systemic); parameters: species or system rat; conditions: for uterotrophic response (in words) / Uterotrophic R.A × 10^3: 100 μg dose; for Uterotrophic R.A × 10^3: activity relative to E2, × 10^3
Description: In Vivo Estrogen Bioassays: Uterine Weight. […] Control animals received sesame oil. On the fourth day, the animals were killed, the uteri were removed, dissected, blotted and weighed. Except where noted, each compound was assayed in 2 separate experiments with n=5.

[8] = n.s. = not significantly different from the control

| Compound | Ishikawa cell AlkP (RSA) [2] | Esterase (RHA) [1] | Estrogen Receptor (RBA) [3] | other results |
| --- | --- | --- | --- | --- |
| 2′-Fluoroethyl(3,17β-dihydroxyestra-1,3,5(10)-trien-15α-yl)formate [E15-1,2F1] | 3 ± 0.2 |  |  | Esterase (RHA) ([1]; relative hydrolytic activity in comparison to E16-1,2 (=100), 50 μM ester, 37° C., ± SD): 4.5 ± 0.1 |
| C[C@]12CC[C@@H]3c4ccc(O)cc4CC[C@H]3[C@@H]1CCC2=O [Compound E1, estrone, reference compound] | 4 ± 2 |  |  |  |
| C[C@]12CC[C@@H]3c4ccc(O)cc4CC[C@H]3[C@@H]1[C@@H](C(=O)O)C[C@@H]2O [E15-1,0, 3,17β-Dihydroxyestra-1,3,5(10)-trien-15α-carboxylic acid] |  |  |  | binding to the estrogen receptor (in words) [3]: does not bind to the estrogen receptor; also recorded: very low, not measurable; estrogenic activity in the Ishikawa cell assay (in words) [2]: nor does it have estrogenic activity; also recorded: very low, not measurable |
| CCOC(=O)[C@H]1C[C@H](O)[C@@]2(C)CC[C@@H]3c4ccc(O)cc4CC[C@H]3[C@H]12 [E15-1,2, Ethyl(3,17β-dihydroxyestra-1,3,5(10)-trien-15α-yl)formate] | 18 ± 10 | 2.3 ± 0.1 | 25 ± 12 | RBA [3]: 25%; Vaginal R.A × 10^3 [4]: 0.42; activity in the vaginal assay (in words) ([4]; mouse, in vivo): very active in the vaginal assay; selectivity / preference for ERα [5]: about 3 fold; ERα RBA [5]: 22 ± 5; ERα/ERβ (ratio of RBA) [5]: 3 ± 0.6; ERβ RBA [6]: 7 ± 2; uterotrophic response (in words) [7]: neither of these 15α-substituted estrogens produced a statistically significant uterotrophic response; also recorded: neither of these 15α-alkyl esters produce a statistically significant estrogenic response in the uterus; also recorded: inactive in the uterotrophic assay; uterotrophic stimulation at 300 μg dose, equivalent ng of E2 ([7]; 300 μg dose, statistically significant (P<0.05)): 5 ng of E2; Uterotrophic R.A × 10^3 [7, 8]: n.s.; RSA ([2]; relative to E2): 18% |
| CCCOC(=O)[C@H]1C[C@H](O)[C@@]2(C)CC[C@@H]3c4ccc(O)cc4CC[C@H]3[C@H]12 [E15-1,3, Propyl(3,17β-dihydroxyestra-1,3,5(10)-trien-15α-yl)formate] | 2 ± 1 |  | 17 ± 5 |  |
| CC(C)OC(=O)[C@H]1C[C@H](O)[C@@]2(C)CC[C@@H]3c4ccc(O)cc4CC[C@H]3[C@H]12 [E15-1,3i, Isopropyl(3,17β-dihydroxyestra-1,3,5(10)-trien-15α-yl)formate] | 0.3 ± 0.06 | 0.4 ± 0.1 | 5 ± 4 | RHA ([1]; rat, 50 μM): 0.3% |
| CCCCOC(=O)[C@H]1C[C@H](O)[C@@]2(C)CC[C@@H]3c4ccc(O)cc4CC[C@H]3[C@H]12 [E15-1,4, Butyl(3,17β-dihydroxyestra-1,3,5(10)-trien-15α-yl)formate] | 0.7 ± 0.4 | 7 ± 0.5 | 8 ± 2 |  |
| C[C@]12CC[C@@H]3c4ccc(O)cc4CC[C@H]3[C@@H]1[C@@H](CC(=O)O)C[C@@H]2O [E15-2,0, (3,17β-Dihydroxyestra-1,3,5(10)-trien-15α-yl)acetic acid] | 0.2 ± 0.2 |  | <0.1 |  |
| COC(=O)C[C@H]1C[C@H](O)[C@@]2(C)CC[C@@H]3c4ccc(O)cc4CC[C@H]3[C@H]12 [E15-2,1, Methyl(3,17β-dihydroxyestra-1,3,5(10)-trien-15α-yl)acetate] | 1 ± 1 | 31 ± 6 | 5 ± 3 | RBA [3]: 5% |
| CCOC(=O)C[C@H]1C[C@H](O)[C@@]2(C)CC[C@@H]3c4ccc(O)cc4CC[C@H]3[C@H]12 [E15-2,2, Ethyl(3,17β-dihydroxyestra-1,3,5(10)-trien-15α-yl)acetate] | 0.4 ± 0.5 | 71 ± 7 | 2 ± 0 | RBA [3]: 2% |
| C[C@]12CC[C@@H]3c4ccc(O)cc4CC[C@H]3[C@@H]1[C@@H](CCC(=O)O)C[C@@H]2O [E15-3,0, 3-(3,17β-Dihydroxyestra-1,3,5(10)-trien-15α-yl)propionic acid] | 0 |  | 0 |  |
| COC(=O)CC[C@H]1C[C@H](O)[C@@]2(C)CC[C@@H]3c4ccc(O)cc4CC[C@H]3[C@H]12 [E15-3,1, Methyl 3-(3,17β-dihydroxyestra-1,3,5(10)-trien-15α-yl)propionate] | 0 | 248 ± 26 | 0.8 ± 0.1 |  |
| CCOC(=O)CC[C@H]1C[C@H](O)[C@@]2(C)CC[C@@H]3c4ccc(O)cc4CC[C@H]3[C@H]12 [E15-3,2, Ethyl 3-(3,17β-dihydroxyestra-1,3,5(10)-trien-15α-yl)propionate] | 0 | 674 ± 14 | <0.1 |  |
| CCOC(=O)[C@@H]1C[C@H]2[C@@H]3CCc4cc(O)ccc4[C@H]3CC[C@]2(C)[C@H]1O [E16-1,2, reference compound] |  |  |  | enzymatic velocity for the hydrolysis ([1]; rat hepatic microsomes, 50 μM ester, 37° C., ± S.D. over the various experiments): 2.34±0.8 nmol product/min/mg protein; selectivity / preference for ERα [5]: ~95 fold; ERα RBA [5]: 27 ± 6; ERα/ERβ (ratio of RBA) [5]: 95 ± 47; ERβ RBA [6]: 0.3 ± 0.1 |
| C[C@]12CC[C@@H]3c4ccc(O)cc4CC[C@H]3[C@@H]1C[C@@H](C(=O)OCCF)[C@@H]2O [E16-1,2F1, reference compound] |  |  |  | Vaginal effect 50 ng dose (pg E2 equivalent) ([4]; 50 ng instilled into the vagina, ovariectomized mice, compared to 50 pg E2, brackets = range): 21^b pg E2 equivalent; Vaginal R.A × 10^3 [4]: 0.42; uterotrophic response (in words) [7]: small but statistically significant response; Uterotrophic effect 100 μg dose (ng E2 equivalent) ([7]; 100 μg total dose s.c. over 3 days, immature rats, compared to 5 ng E2, brackets = range, n.s. = not significantly different from the control): 2 ng E2 equivalent and 2^b ng E2 equivalent; Uterotrophic R.A × 10^3 [7, 8]: 0.02 |
